US20130096067A1, “DROSOPHILA TUMOR STEM CELL MODEL AND USES THEREOF” (priority 2011, published 2013)

Test system: Raf-1^gof intestinal tumors
Conditions: for Log2 (fold) of luciferase activity relative to DMSO controls / Fold (luciferase activity relative to DMSO controls): ICCB compounds fed in vials to flies with one-day old Raf-1^gof tumors; for Log2 (fold) of luciferase activity relative to DMSO controls / Fold (luciferase activity relative to DMSO controls) / Log2 (fold) (luciferase activity, log2 of the fold difference relative to DMSO controls) / Fold (luciferase activity, fold difference relative to DMSO controls): assessed three days later; for Fold (luciferase activity relative to DMSO controls) / Fold (luciferase activity, fold difference relative to DMSO controls): averaged from multiple wells; for Log2 (fold) (luciferase activity, log2 of the fold difference relative to DMSO controls) / Fold (luciferase activity, fold difference relative to DMSO controls): screen of 480 ICCB compounds in vials, compounds fed to flies with one-day old Raf-1^gof tumors, esg-Gal4 luciferase
Throughout, for Fold (luciferase activity relative to DMSO controls): test concentration or dose not given here.
Throughout, for Fold (luciferase activity, fold difference relative to DMSO controls): test concentration or dose not given here.
Throughout, for Log2 (fold) (luciferase activity, log2 of the fold difference relative to DMSO controls): test concentration or dose not given here.
Throughout, for Log2 (fold) of luciferase activity relative to DMSO controls: test concentration or dose not given here.

COc1ccc2c(c1)c(CC(=O)N1CCOCC1)c(C)n2C(=O)c1ccc(Cl)cc1 [BML-190]
Log2 (fold) of luciferase activity relative to DMSO controls: −0.202 | Fold (luciferase activity relative to DMSO controls): 0.869 fold

CCCCC/C=C\C/C=C\C/C=C\C/C=C\CCCC(=O)OC(CO)COCCCCCCCCCCCCCCCC (centres unmarked) [1-HEXADECYL-2-ARACHIDONOYL-GLYCEROL]
Log2 (fold) (luciferase activity, log2 of the fold difference relative to DMSO controls): −0.379 | Fold (luciferase activity, fold difference relative to DMSO controls): 0.769

calphostin C
Log2 (fold) (luciferase activity, log2 of the fold difference relative to DMSO controls): −0.707 | Fold (luciferase activity, fold difference relative to DMSO controls): 0.613

CC(O)(C(=O)Nc1ccc(S(=O)(=O)c2ccccc2)cc1)C(F)(F)F (centres unmarked) [ZM226600]
Log2 (fold) of luciferase activity relative to DMSO controls: −0.117 | Fold (luciferase activity relative to DMSO controls): 0.922 fold

CCCCCCCCC#CCC#CCC#CCCCC(=O)O [5,8,11-EICOSATRIYNOIC ACID]
Log2 (fold) of luciferase activity relative to DMSO controls: 0.094 | Fold (luciferase activity relative to DMSO controls): 1.067 fold

C[C@@H]1C[C@@H]([C@H](O)CC2CC(=O)NC(=O)C2)C(=O)[C@@H](C)C1 [cycloheximide, reference compound]
Fold (Table 3 summary of hits, Screen ICCB, luciferase relative to DMSO, fed three consecutive days in vials): 0.337 fold | Log2 (fold) (luciferase activity, log2 of the fold difference relative to DMSO controls): −1.568 | Fold (luciferase activity, fold difference relative to DMSO controls): 0.337

C[C@H]1CCC/C=C/[C@@H]2C[C@H](O)C[C@H]2[C@H](O)/C=C/C(=O)O1 [brefeldin A]
Log2 (fold) (luciferase activity, log2 of the fold difference relative to DMSO controls): −0.422 | Fold (luciferase activity, fold difference relative to DMSO controls): 0.746

CC[C@@]1(O)C(=O)OCc2c1cc1n(c2=O)Cc2cc3ccccc3nc2-1 [camptothecin, reference compound]
Log2 (fold) (Table 3 summary of hits, Screen ICCB): −1.619

CCCCC/C=C\C=C\[C@H](CCCCCCCC(=O)O)OO [9(S)-HPODE]
Log2 (fold) (luciferase activity, log2 of the fold difference relative to DMSO controls): −0.294 | Fold (luciferase activity, fold difference relative to DMSO controls): 0.816

CCCCC[C@H](O)/C=C/[C@H]1[C@H](O)CC(=O)[C@@H]1C/C=C\CCCC(=O)O [PROSTAGLANDIN E2]
Log2 (fold) (luciferase activity, log2 of the fold difference relative to DMSO controls): −0.223 | Fold (luciferase activity, fold difference relative to DMSO controls): 0.857

CCCCC/C=C\C/C=C\CCCCCCCCCC(=O)O [EICOSADIENOIC ACID (20:2 n-6)]
Log2 (fold) of luciferase activity relative to DMSO controls: −0.093 | Fold (luciferase activity relative to DMSO controls): 0.938 fold

CC/C=C\C/C=C\C/C=C\CCCCCCCC(=O)O [LINOLENIC ACID (18:3 n-3)]
Log2 (fold) of luciferase activity relative to DMSO controls: 0.096 | Fold (luciferase activity relative to DMSO controls): 1.069 fold

CN(C)CCCn1cc(C2=C(c3c[nH]c4ccccc34)C(=O)NC2=O)c2ccccc21 [GF-109203X]
Log2 (fold) (luciferase activity, log2 of the fold difference relative to DMSO controls): −0.238 | Fold (luciferase activity, fold difference relative to DMSO controls): 0.848

N#CC(C#N)=NNc1ccc(OC(F)(F)F)cc1 [FCCP]
Log2 (fold) (luciferase activity, log2 of the fold difference relative to DMSO controls): −0.313 | Fold (luciferase activity, fold difference relative to DMSO controls): 0.805

CN1C(=O)[C@]23CC4=CC=C[C@H](O)[C@H]4N2C(=O)[C@@]1(CO)SS3 [Gliotoxin]
Log2 (fold) (luciferase activity, log2 of the fold difference relative to DMSO controls): −0.478 | Fold (luciferase activity, fold difference relative to DMSO controls): 0.718

Cl.NC(=S)NCCCC(N)C(=O)O [Thiocitrulline [L-Thiocitrulline HCl]]
Log2 (fold) of luciferase activity relative to DMSO controls: −0.170 | Fold (luciferase activity relative to DMSO controls): 0.889 fold

CCCCCCCCCCCCCCCCCCOCC(COP(=O)([O-])OCC[N+](C)(C)C)OC (centres unmarked) [1-OCTADECYL-2-METHYLGLYCERO-3 PC]
Log2 (fold) (luciferase activity, log2 of the fold difference relative to DMSO controls): −0.538 | Fold (luciferase activity, fold difference relative to DMSO controls): 0.689

CCCCC(C)(C)C(O)C=CC1C(O)CC(=O)C1CC=CCCCC(=O)O (centres unmarked) [16,16-DIMETHYL-PROSTAGLANDIN E2]
Log2 (fold) of luciferase activity relative to DMSO controls: −0.013 | Fold (luciferase activity relative to DMSO controls): 0.991 fold

COc1cc2ncnc(Nc3cccc(Cl)c3)c2cc1OC [AG1478]
Log2 (fold) (luciferase activity, log2 of the fold difference relative to DMSO controls): −0.655 | Fold (luciferase activity, fold difference relative to DMSO controls): 0.635
